Results published in US5089513A, “5-lipoxygenase inhibitory thiazoles” (ICI Pharma, priority 1988, dated 1992).

What was measured:
[1] = molecular target: T1, 5-LO (Homo sapiens, UniProt P09917); experiment: Test b) heparinised human blood challenged with A23187, LTB4 radioimmunoassay; assay type: cell-based
T1 construct: incubating a test compound with heparinised human blood; endogenous in cells; host or cells: leukocytes in heparinised human whole blood
T1 sequence (P09917 1-674): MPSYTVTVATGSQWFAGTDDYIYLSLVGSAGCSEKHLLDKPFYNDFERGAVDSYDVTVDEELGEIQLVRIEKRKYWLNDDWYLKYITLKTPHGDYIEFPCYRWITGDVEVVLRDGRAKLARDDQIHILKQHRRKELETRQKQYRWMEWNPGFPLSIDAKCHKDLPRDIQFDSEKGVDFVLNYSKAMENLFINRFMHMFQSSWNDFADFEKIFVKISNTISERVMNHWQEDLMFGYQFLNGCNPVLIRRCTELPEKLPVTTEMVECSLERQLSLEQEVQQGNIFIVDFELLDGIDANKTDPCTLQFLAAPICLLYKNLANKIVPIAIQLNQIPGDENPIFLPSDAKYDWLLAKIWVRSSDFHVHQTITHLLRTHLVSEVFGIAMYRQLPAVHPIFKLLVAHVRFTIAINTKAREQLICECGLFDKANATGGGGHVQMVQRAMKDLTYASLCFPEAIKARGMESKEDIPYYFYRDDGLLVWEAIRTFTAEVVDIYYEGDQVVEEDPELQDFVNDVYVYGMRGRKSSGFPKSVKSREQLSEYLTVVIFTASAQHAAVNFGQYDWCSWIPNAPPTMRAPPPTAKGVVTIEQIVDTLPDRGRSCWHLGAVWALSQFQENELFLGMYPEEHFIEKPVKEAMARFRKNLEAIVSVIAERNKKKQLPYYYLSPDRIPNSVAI
Method: b) An in vitro assay system involving incubating a test compound with heparinised human blood, prior to challenge with the calcium ionophore A23187 and then indirectly measuring the inhibitory effects on 5-LO by assaying the amount of LTB4 using the specific radioimmunoassay described by Carey and Forder (F. Carey and R. A. Forder, Brit. […] This test provides an indication of the effects of a test compound against 5-LO and also cyclooxygenase in the presence of blood cells and proteins. It permits the selectivity of the inhibitory effect on 5-LO or cyclooxygenase to be assessed.

[2] = molecular target: T2, 5-LO (Rattus norvegicus, UniProt P12527); experiment: Test c) ex vivo assay, blood collected after oral administration, A23187 challenge, LTB4 radioimmunoassay; assay type: in vivo
T2 construct: blood collection, heparinisation, challenge with A23187 and radioimmunoassay of LTB4 and TxB2; endogenous in cells
T2 sequence (P12527 1-673): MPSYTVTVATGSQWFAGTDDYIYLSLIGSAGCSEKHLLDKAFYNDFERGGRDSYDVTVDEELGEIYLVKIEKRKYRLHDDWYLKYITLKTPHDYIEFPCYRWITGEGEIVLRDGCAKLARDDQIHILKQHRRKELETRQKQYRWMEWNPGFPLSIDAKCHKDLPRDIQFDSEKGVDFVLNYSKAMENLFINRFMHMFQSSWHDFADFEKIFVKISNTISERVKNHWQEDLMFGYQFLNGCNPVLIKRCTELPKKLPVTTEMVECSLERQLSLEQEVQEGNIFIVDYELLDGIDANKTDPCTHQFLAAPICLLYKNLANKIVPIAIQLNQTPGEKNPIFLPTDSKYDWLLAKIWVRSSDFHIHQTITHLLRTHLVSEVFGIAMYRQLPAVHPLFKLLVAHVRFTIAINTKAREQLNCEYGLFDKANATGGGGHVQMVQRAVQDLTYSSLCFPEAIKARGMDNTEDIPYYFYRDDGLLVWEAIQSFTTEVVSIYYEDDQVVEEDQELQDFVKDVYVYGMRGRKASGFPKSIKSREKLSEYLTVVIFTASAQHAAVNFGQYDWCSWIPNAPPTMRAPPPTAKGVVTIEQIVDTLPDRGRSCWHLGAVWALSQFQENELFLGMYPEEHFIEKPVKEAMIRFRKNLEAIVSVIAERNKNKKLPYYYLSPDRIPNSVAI

[3] = molecular target: T3, 5-LO (Cavia porcellus, UniProt A0A286X958); experiment: Test a) in vitro spectrophotometric cell free enzyme assay using 5-LO isolated from guinea pig neutrophils; assay type: biochemical
T3 construct: 5-LO isolated from guinea pig neutrophils; endogenous in cells; host or cells: guinea pig neutrophils (enzyme isolated, soluble, cell-free)
T3 sequence (A0A286X958 1-674): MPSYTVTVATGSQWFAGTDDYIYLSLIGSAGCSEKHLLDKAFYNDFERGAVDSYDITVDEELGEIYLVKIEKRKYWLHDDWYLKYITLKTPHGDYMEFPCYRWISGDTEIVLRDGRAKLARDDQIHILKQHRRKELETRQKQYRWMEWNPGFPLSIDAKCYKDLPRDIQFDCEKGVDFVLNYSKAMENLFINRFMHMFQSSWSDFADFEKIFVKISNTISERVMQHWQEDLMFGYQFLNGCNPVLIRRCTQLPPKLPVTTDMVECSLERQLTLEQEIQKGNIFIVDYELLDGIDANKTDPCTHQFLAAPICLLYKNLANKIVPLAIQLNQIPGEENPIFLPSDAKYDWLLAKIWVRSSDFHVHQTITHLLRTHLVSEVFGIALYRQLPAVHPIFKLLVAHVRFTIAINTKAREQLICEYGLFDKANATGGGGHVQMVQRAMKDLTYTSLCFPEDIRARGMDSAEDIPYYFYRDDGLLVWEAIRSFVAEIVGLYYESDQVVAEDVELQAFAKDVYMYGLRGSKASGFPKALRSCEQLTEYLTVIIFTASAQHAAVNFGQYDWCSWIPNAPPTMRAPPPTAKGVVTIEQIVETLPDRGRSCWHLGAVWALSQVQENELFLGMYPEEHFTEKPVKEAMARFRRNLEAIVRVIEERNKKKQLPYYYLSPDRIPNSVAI
Description: a) An in vitro spectrophotometric enzyme assay system, which assesses the inhibitory properties of a test compound in a cell free system using 5-LO isolated from guinea pig neutrophils and as described by D.Aharony and R. L. Stein (J. Biol. Chem., 1986, 261(25), 11512-11519). This test provides a measure of the intrinsic inhibitory properties against soluble 5-LO in an extracellular environment.

[4] = molecular target: T4, cyclooxygenase (Homo sapiens, UniProt P23219); experiment: Test b) heparinised human blood challenged with A23187, TxB2 radioimmunoassay; assay type: cell-based
T4 construct: incubating a test compound with heparinised human blood; endogenous in cells; host or cells: blood cells (mainly platelets, own knowledge) in heparinised human whole blood
T4 sequence (P23219 24-599): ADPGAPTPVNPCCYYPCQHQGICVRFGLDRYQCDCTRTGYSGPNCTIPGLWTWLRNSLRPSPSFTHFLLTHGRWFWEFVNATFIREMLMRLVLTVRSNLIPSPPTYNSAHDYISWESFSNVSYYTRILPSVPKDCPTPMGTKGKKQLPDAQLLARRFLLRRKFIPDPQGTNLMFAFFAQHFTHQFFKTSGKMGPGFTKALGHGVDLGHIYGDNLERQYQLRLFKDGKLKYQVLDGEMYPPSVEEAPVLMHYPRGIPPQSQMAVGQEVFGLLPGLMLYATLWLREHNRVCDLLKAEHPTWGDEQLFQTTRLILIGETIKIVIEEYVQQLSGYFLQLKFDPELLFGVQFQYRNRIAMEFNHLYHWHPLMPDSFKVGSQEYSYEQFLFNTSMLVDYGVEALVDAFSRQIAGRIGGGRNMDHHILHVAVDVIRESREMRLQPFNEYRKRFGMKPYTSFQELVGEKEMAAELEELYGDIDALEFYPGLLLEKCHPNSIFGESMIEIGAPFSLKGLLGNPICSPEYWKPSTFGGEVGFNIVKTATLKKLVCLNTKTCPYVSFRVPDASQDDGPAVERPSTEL
Method: b) An in vitro assay system involving incubating a test compound with heparinised human blood, prior to challenge with the calcium ionophore A23187 and then indirectly measuring the inhibitory effects on 5-LO by assaying the amount of LTB4 using the specific radioimmunoassay described by Carey and Forder (F. Carey and R. A. Forder, Brit. J. Pharmacol. 1985, 84, 34P) which involves the use of a protein-LTB4 conjugate produced using the procedure of Young et alia (Prostaglandins, 1983, 26(4),605-613). The effects of a test compound on the enzyme cyclooxygenase (which is involved in the alternative metabolic pathway for arachidonic acid and gives rise to prostaglandins, thromboxanes and related metabolites) may be measured at the same time using the specific radioimmunoassay for thromboxane B2 (TxB2) described by Carey and Forder (see above). This test provides an indication of the effects of a test compound against 5-LO and also cyclooxygenase in the presence of blood cells and proteins. It permits the selectivity of the inhibitory effect on 5-LO or cyclooxygenase to be assessed.

Row | SMILES | IC50 [1] [nM] | ED50 [2] [mg/kg] | IC50 [3] [nM] | IC50 [4] [nM]
1 | CCC(OC)(c1cccc(OCC#Cc2ccc(F)cc2)c1)c1nccs1 (centres unmarked) [2-[1-[3-(3-(4-fluorophenyl)prop-2-ynyloxy)phenyl]-1-methoxypropyl]thiazole] | 40 | 10 |  | 
2 | CCC(OC)(c1cccc(OCc2ccc3ccccc3c2)c1)c1nccs1 (centres unmarked) [2-[1-methoxy-1-[3-(naphth-2-ylmethoxy)phenyl]propyl]thiazole] |  | 10 | 100 | > 100000
